Positions of bridges follow the written chain, without caps; N, C: chain ends. Non-standard residues stand in square brackets, D forms with d. Residues, ends and D or L forms follow the SMILES beside them. R8 = C=CCCCCCC[C@@](C)(N)C(=O)O; S5 = C=CCCC[C@](C)(N)C(=O)O Where only a bound is given, the exact number is not on record here.

The text below walks through data of patent publication US12391733B2, “Stapled intracellular-targeting antimicrobial peptides to treat infection” (priority 2016, dated 2025).

Data set [1] concerns E. coli. Type of data set: cell-based, Escherichia coli. The note with it: for Antimicrobial Activity NIC (μg/ml) E. coli: Table 1, microbroth dilution, refined MHB, 20-24 hours at 37° C. The method, then: Antimicrobial Activity Assay The following microbroth dilution protocol was adapted to determine the MIC of each peptide. First, Mueller-Hinton broth (MHB) was passed through an anion exchange column to remove polyanionic species and generate refined MHB. This refined broth was then used in the standard microbroth dilution protocol devised by Hancock et al. for 96 well plates. […] Briefly, bacterial cells were grown overnight in refined MHB at 37° C. and then diluted and allowed to grow again for several hours. Serial dilutions of peptide stocks in water (10 μl) were prepared using clear round-bottom polypropylene 96-well plates. Then 90 μl of bacteria in refined MHB was added to give a final inoculum of 5×10^5 CFU/ml. The plates were then covered with porous tape to reduce evaporation, and incubated for 20-24 hours at 37° C.

Data set [2] is described as follows: circular dichroism. The note with it: 10 mM phosphate buffer; pH 7.4; ns °C; 100 uM.
The test system of data set [3] is human red blood cells (RBCs). The class given is cell-based. The conditions noted are these: for % Hemolysis at 50 μg/ml: red cells of human, 1 h. From the text: One of the key obstacles that have long impeded the use of AMPs in systemic infections such as sepsis is their tendency to lyse human cells, such as red blood cells (RBCs). Thus, it is critical to minimize hemolytic activity as much as possible to achieve a therapeutic window. […] Of note, in those circumstances where hydrocarbon staples increase hemolytic activity due to increasing hydrophobicity, the alkene moiety can be modified, e.g., by dihydroxylation, to install hydrophilic residues and potentially mitigate hemolysis.
Hemolytic Activity Assay For the determination of hemolytic activity, the following protocol was applied: human blood samples were centrifuged to isolate red blood cells (RBCs), which were then washed and suspended in phosphate-buffered saline to yield a 1% (v/v) suspension. This suspension was then added to serial dilutions of peptide stocks in water in clear round-bottom polypropylene 96-well plates and the plates incubated for 1 hour at 37° C. After incubation, the plates were centrifuged and the supernatant isolated to determine the amount of hemoglobin released using a spectrophotometer (570 nm). The minimum hemolytic concentration (MHC) was determined by assessing the peptide concentration at which there was less than 1% hemoglobin release.

Regarding `CC(C)C[C@H](NC(=O)CNC(=O)[C@H](C)NC(=O)[C@H](CCCNC(=N)N)NC(=O)[C@H](CO)NC(=O)[C@H](CO)NC(=O)[C@H](CCCNC(=N)N)NC(=O)[C@@H](N)[C@@H](C)O)C(=O)N[C@@H](CCC(N)=O)C(=O)N[C@@H](Cc1c[nH]c2ccccc12)C(=O)N1CCC[C@H]1C(=O)N[C@H](C(=O)N[C@@]1(C)CCCC=CCCC[C@@](C)(C(=O)N[C@@H](CC(C)C)C(=O)N[C@@H](CC(C)C)C(=O)N[C@@H](CCCNC(=N)N)C(=O)N[C@@H](CCCCN)C(N)=O)NC(=O)[C@H](Cc2c[nH]cn2)NC(=O)[C@H](C(C)C)NC(=O)[C@H](CCCNC(=N)N)NC1=O)C(C)C` [BFStap(i + 4)5] (H-TRSSRAGLQWPV[S5]RVH[S5]LLRK-NH2; staple 13-17; N-terminus and C-terminus assumed), the “Antimicrobial Activity NIC (μg/ml) E. coli” value (from here on “Antimicrobial Activity NIC”) in data set [1] turned out to be 66.7 µg/mL. This compound registered a helicity in data set [2] of 8.8%. In data set [3], the “% Hemolysis at 50 μg/ml” value is given as 3.0%.

On to `CC(C)C[C@H](NC(=O)CNC(=O)[C@H](C)NC(=O)[C@H](CCCNC(=N)N)NC(=O)[C@H](CO)NC(=O)[C@H](CO)NC(=O)[C@H](CCCNC(=N)N)NC(=O)[C@@H](N)[C@@H](C)O)C(=O)N[C@@]1(C)CCCC=CCCC[C@@](C)(C(=O)N[C@@H](CCCNC(=N)N)C(=O)N[C@H](C(=O)N[C@@H](Cc2c[nH]cn2)C(=O)N[C@@H](CCCNC(=N)N)C(=O)N[C@@H](CC(C)C)C(=O)N[C@@H](CC(C)C)C(=O)N[C@@H](CCCNC(=N)N)C(=O)N[C@@H](CCCCN)C(N)=O)C(C)C)NC(=O)[C@H](C(C)C)NC(=O)[C@@H]2CCCN2C(=O)[C@H](Cc2c[nH]c3ccccc23)NC1=O` [BFStap(i + 4)7] (H-TRSSRAGL[S5]WPV[S5]RVHRLLRK-NH2; staple 9-13; N-terminus and C-terminus assumed), for which the “Antimicrobial Activity NIC” value in data set [1] is 6.3 µg/mL. Besides, the “antimicrobial activity (in words)” value in data set [1] (compared to unstapled buforin II (F10W) and buforin II) is “greatest increase in antimicrobial activity”. In data set [2], this compound displayed a helicity of 6.9%. In data set [3], the “hemolytic activity (in words)” value is recorded as “low hemolytic activity” and the “% Hemolysis at 50 μg/ml” value is 3.4%.

As for `CC(C)C[C@H](NC(=O)[C@H](CC(C)C)NC(=O)[C@H](CCCNC(=N)N)NC(=O)[C@H](Cc1c[nH]cn1)NC(=O)[C@@H](NC(=O)[C@H](CCCNC(=N)N)NC(=O)CNC(=O)[C@]1(C)CCCC=CCCC[C@](C)(NC(=O)CNC(=O)[C@H](C)NC(=O)[C@H](CCCNC(=N)N)NC(=O)[C@H](CO)NC(=O)[C@H](CO)NC(=O)[C@H](CCCNC(=N)N)NC(=O)[C@@H](N)[C@@H](C)O)C(=O)N[C@@H](CCC(N)=O)C(=O)N[C@@H](Cc2c[nH]c3ccccc23)C(=O)N2CCC[C@H]2C(=O)N1)C(C)C)C(=O)N[C@@H](CCCNC(=N)N)C(=O)N[C@@H](CCCCN)C(N)=O` [BFStap(i + 4)8] (H-TRSSRAG[S5]QWP[S5]GRVHRLLRK-NH2; staple 8-12; N-terminus and C-terminus assumed), the “Antimicrobial Activity NIC” value in data set [1] worked out at 29.2 µg/mL. Further, the helicity in data set [2] was 2.3%. Moreover, the “% Hemolysis at 50 μg/ml” value in data set [3] was 2.8%.

Take `CC(C)C[C@@H]1NC(=O)CNC(=O)[C@H](C)NC(=O)[C@@](C)(NC(=O)[C@H](CO)NC(=O)[C@H](CO)NC(=O)[C@H](CCCNC(=N)N)NC(=O)[C@@H](N)[C@@H](C)O)CCCC=CCCC[C@@](C)(C(=O)N[C@@H](Cc2c[nH]c3ccccc23)C(=O)N2CCC[C@H]2C(=O)N[C@H](C(=O)NCC(=O)N[C@@H](CCCNC(=N)N)C(=O)N[C@H](C(=O)N[C@@H](Cc2c[nH]cn2)C(=O)N[C@@H](CCCNC(=N)N)C(=O)N[C@@H](CC(C)C)C(=O)N[C@@H](CC(C)C)C(=O)N[C@@H](CCCNC(=N)N)C(=O)N[C@@H](CCCCN)C(N)=O)C(C)C)C(C)C)NC1=O` [BFStap(i + 4)9] (H-TRSS[S5]AGL[S5]WPVGRVHRLLRK-NH2; staple 5-9; N-terminus and C-terminus assumed): in data set [1], the “Antimicrobial Activity NIC” value turned out to be 50.0 µg/mL. Besides, the helicity in data set [2] came out at 11.7%. Besides, the “% Hemolysis at 50 μg/ml” value in data set [3] came out at 2.5%.

With `CC(C)C[C@H](NC(=O)[C@H](CC(C)C)NC(=O)[C@H](CCCNC(=N)N)NC(=O)[C@H](Cc1c[nH]cn1)NC(=O)[C@@H](NC(=O)[C@H](CCCNC(=N)N)NC(=O)CNC(=O)[C@@H](NC(=O)[C@@H]1CCCN1C(=O)[C@H](Cc1c[nH]c2ccccc12)NC(=O)[C@H](CCC(N)=O)NC(=O)[C@]1(C)CCCC=CCCC[C@](C)(NC(=O)[C@H](CO)NC(=O)[C@H](CCCNC(=N)N)NC(=O)[C@@H](N)[C@@H](C)O)C(=O)N[C@@H](CCCNC(=N)N)C(=O)N[C@@H](C)C(=O)NCC(=O)N1)C(C)C)C(C)C)C(=O)N[C@@H](CCCNC(=N)N)C(=O)N[C@@H](CCCCN)C(N)=O` [BFStap(i + 4)10] (H-TRS[S5]RAG[S5]QWPVGRVHRLLRK-NH2; staple 4-8; N-terminus and C-terminus assumed), in data set [1], the “Antimicrobial Activity NIC” value was 100 µg/mL. This compound returned a helicity in data set [2] of 20.9%. Further, in data set [3], the “% Hemolysis at 50 μg/ml” value was found to be 2.4%.

Consider `CC(C)C[C@H](NC(=O)CNC(=O)[C@]1(C)CCCC=CCCC[C@](C)(NC(=O)[C@@H](N)[C@@H](C)O)C(=O)N[C@@H](CO)C(=O)N[C@@H](CO)C(=O)N[C@@H](CCCNC(=N)N)C(=O)N1)C(=O)N[C@@H](CCC(N)=O)C(=O)N[C@@H](Cc1c[nH]c2ccccc12)C(=O)N1CCC[C@H]1C(=O)N[C@H](C(=O)NCC(=O)N[C@@H](CCCNC(=N)N)C(=O)N[C@H](C(=O)N[C@@H](Cc1c[nH]cn1)C(=O)N[C@@H](CCCNC(=N)N)C(=O)N[C@@H](CC(C)C)C(=O)N[C@@H](CC(C)C)C(=O)N[C@@H](CCCNC(=N)N)C(=O)N[C@@H](CCCCN)C(N)=O)C(C)C)C(C)C` [BFStap(i + 4)12] (H-T[S5]SSR[S5]GLQWPVGRVHRLLRK-NH2; staple 2-6; N-terminus and C-terminus assumed), for which the “Antimicrobial Activity NIC” value in data set [1] was over 100 µg/mL. The helicity in data set [2] amounted to 5.3%. Moreover, the “% Hemolysis at 50 μg/ml” value in data set [3] is 2.4%.

Consider `CC(C)C[C@H](NC(=O)CNC(=O)[C@H](C)NC(=O)[C@]1(C)CCCC=CCCC[C@](C)(N)C(=O)N[C@@H](CCCNC(=N)N)C(=O)N[C@@H](CO)C(=O)N[C@@H](CO)C(=O)N1)C(=O)N[C@@H](CCC(N)=O)C(=O)N[C@@H](Cc1c[nH]c2ccccc12)C(=O)N1CCC[C@H]1C(=O)N[C@H](C(=O)NCC(=O)N[C@@H](CCCNC(=N)N)C(=O)N[C@H](C(=O)N[C@@H](Cc1c[nH]cn1)C(=O)N[C@@H](CCCNC(=N)N)C(=O)N[C@@H](CC(C)C)C(=O)N[C@@H](CC(C)C)C(=O)N[C@@H](CCCNC(=N)N)C(=O)N[C@@H](CCCCN)C(N)=O)C(C)C)C(C)C` [BFStap(i + 4)13] (H-[S5]RSS[S5]AGLQWPVGRVHRLLRK-NH2; staple 1-5; N-terminus and C-terminus assumed), for which, in data set [1], the “Antimicrobial Activity NIC” value is over 100 µg/mL. The same compound yielded a helicity in data set [2] of 0%. For the same compound, the “% Hemolysis at 50 μg/ml” value in data set [3] amounted to 2.4%.

For `CC(C)C[C@H](NC(=O)CNC(=O)[C@H](C)NC(=O)[C@H](CCCNC(=N)N)NC(=O)[C@H](CO)NC(=O)[C@H](CO)NC(=O)[C@H](CCCNC(=N)N)NC(=O)[C@@H](N)[C@@H](C)O)C(=O)N[C@@H](CCC(N)=O)C(=O)N[C@@H](Cc1c[nH]c2ccccc12)C(=O)N1CCC[C@H]1C(=O)N[C@H](C(=O)NCC(=O)N[C@]1(C)CCCCCCC=CCCC[C@@](C)(C(N)=O)NC(=O)[C@H](CCCNC(=N)N)NC(=O)[C@H](CC(C)C)NC(=O)[C@H](CC(C)C)NC(=O)[C@H](CCCNC(=N)N)NC(=O)[C@H](Cc2c[nH]cn2)NC(=O)[C@H](C(C)C)NC1=O)C(C)C` [BFStap(i + 7)1] (H-TRSSRAGLQWPVG[R8]VHRLLR[S5]-NH2; staple 14-21; N-terminus and C-terminus assumed), the “Antimicrobial Activity NIC” value in data set [1] was found to be 10.4 µg/mL. Also, in data set [2], the helicity stood at 16.9%. Further, the “% Hemolysis at 50 μg/ml” value in data set [3] is 16.6%.

For the compound `CC(C)C[C@H](NC(=O)CNC(=O)[C@H](C)NC(=O)[C@H](CCCNC(=N)N)NC(=O)[C@H](CO)NC(=O)[C@H](CO)NC(=O)[C@H](CCCNC(=N)N)NC(=O)[C@@H](N)[C@@H](C)O)C(=O)N[C@@H](CCC(N)=O)C(=O)N[C@@H](Cc1c[nH]c2ccccc12)C(=O)N1CCC[C@H]1C(=O)N[C@H](C(=O)N[C@]1(C)CCCCCCC=CCCC[C@@](C)(C(=O)N[C@@H](CCCCN)C(N)=O)NC(=O)[C@H](CC(C)C)NC(=O)[C@H](CC(C)C)NC(=O)[C@H](CCCNC(=N)N)NC(=O)[C@H](Cc2c[nH]cn2)NC(=O)[C@H](C(C)C)NC(=O)[C@H](CCCNC(=N)N)NC1=O)C(C)C` [BFStap(i + 7)2] (H-TRSSRAGLQWPV[R8]RVHRLL[S5]K-NH2; staple 13-20; N-terminus and C-terminus assumed), the “Antimicrobial Activity NIC” value in data set [1] amounted to 33.3 µg/mL. In data set [2], this compound registered a helicity of 15.6%. Moreover, in data set [3], the “% Hemolysis at 50 μg/ml” value is 3.1%.
